≈ marks a conversion by molar mass, not a printed value.
Legend:
Assay type in all cases: cell-based
[1] = test system: Mycobacterium smegmatis ATCC700084; experiment: MIC, microbroth dilution (NCCLS); conditions: Mycolicibacterium smegmatis, rifS strain, Middlebrook Broth plus ADC Enrichment, 37° C., read-out: Antimicrobial activity (MIC)
[2] = test system: Staphylococcus epidermidis ATCC12228; experiment: MIC, microbroth dilution (NCCLS); conditions: rifS strain, Cation-Adjusted Mueller-Hinton Broth, 37° C., read-out: Antimicrobial activity (MIC)
[3] = test system: Escherichia coli ATCC25922; experiment: MIC, microbroth dilution (NCCLS); conditions: rifS strain, Cation-Adjusted Mueller-Hinton Broth, 37° C., read-out: Antimicrobial activity (MIC)
[4] = test system: Streptococcus pneumoniae ATCC6303; experiment: MIC, microbroth dilution (NCCLS); conditions: rifS strain, THY Broth with 1 mg/mL catalase, 5% CO2, 37° C., read-out: Antimicrobial activity (MIC)
[5] = test system: Streptococcus pyogenes ATCC19615; experiment: MIC, microbroth dilution (NCCLS); conditions: rifS strain, THY Broth, 37° C., read-out: Antimicrobial activity (MIC)
[6] = test system: Staphylococcus aureus ATCC29213; experiment: MIC, microbroth dilution (NCCLS); conditions: rifS strain, Cation-Adjusted Mueller-Hinton Broth, 37° C., read-out: Antimicrobial activity (MIC)
[7] = test system: Haemophilus influenzae ATCC10211; experiment: MIC, microbroth dilution (NCCLS); conditions: rifS strain, BHI Broth with NAD and hematin, 37° C., read-out: Antimicrobial activity (MIC)
[8] = test system: Enterococcus faecalis ATCC29212; experiment: MIC, microbroth dilution (NCCLS); conditions: rifS strain, BHI Broth, 37° C., read-out: Antimicrobial activity (MIC)
[9] = test system: Staphylococcus aureus ATCC29213 rpoB^D417Y; experiment: microbe, parasite or virus in culture; conditions: ATCC29213, read-out: Antimicrobial activity (MIC)
Protocol: (§1) Representative compounds were assayed for antimicrobial activity as follows: Minimum Inhibitory Concentrations (“MICs”) were determined by the microbroth dilution method as per NCCLS guidelines (National Committee for Clinical Laboratory Standards. 2000. Methods for dilution antimicrobial susceptibility tests for bacteria that grow aerobically, 5th ed. M7-A5. National Committee for Clinical Laboratory Standards, Wayne, Pa.), except that all growth incubations were conducted at 37° C. Bacterial cultures were tested in the following bacteriological media: S. aureus, S. epidermidis, and E. coli in Cation-Adjusted Mueller-Hinton Broth, S. pneumoniae in THY Broth supplemented with 1 mg/mL catalase under 5% CO2 atmosphere, S. pyogenes in THY Broth, E. faecalis in BHI Broth, H. influenzae in BHI Broth supplemented with 0.75 μL of 1 mg/mL NAD and 150 μL of 1 mg/ml hematin per 5 mL, and M. smegmatis in Middlebrook Broth plus ADC Enrichment.
(§2) S. aureus ATCC 29213 RpoB^H418Y is a rifampin-resistant strain with a mutation in RNA polymerase, the biological target of rifamycin antibiotics. […] S. aureus EN1252a gyrA^S84L grlA^S80F is a quinolone-resistant strain due to double mutations to DNA gyrase and topoisomerase IV, the two biological targets for quinolone antibiotics.

[10] = test system: Staphylococcus aureus ATCC29213 rpoB^H418Y; experiment: microbe, parasite or virus in culture; conditions: ATCC29213, read-out: Antimicrobial activity (MIC)
Protocol: as §1, §2

[11] = test system: Staphylococcus aureus EN1252a gyrA^S84L grlA^S80F; experiment: microbe, parasite or virus in culture; conditions: read-out: Antimicrobial activity (MIC)
Protocol: as §1, §2

In the case of `COc1c(N2CCN(C3=C4NC(=O)/C(C)=C\C=C\[C@H](C)[C@H](O)[C@@H](C)[C@@H](O)[C@@H](C)[C@H](OC(C)=O)[C@H](C)[C@@H](OC)/C=C/O[C@@]5(C)Oc6c(C)c(O)c(c(c6C5=O)C3=O)C4=O)C(C)C2)c(F)cc2c(=O)c(C(=O)O)cn(C3CC3)c12` (stereo partly drawn) [Example 10, (R,S)-3-[4-(3-Carboxy-1-cyclopropyl-6-fluoro-8-methoxy-4-oxo-1,4-dihydroquinolin-7-yl)-2-methylpiperazin-1-yl]rifamycin S], the MIC [1] is reported as 0.5 to 64 µg/mL, the MIC [2] is reported as 0.008 to 0.063 µg/mL (≈ 0.00748 to 0.0589 µM) and the MIC [3] is reported as 0.125 to 8 µg/mL (≈ 0.117 to 7.48 µM). It also gave an MIC [4] of 0.008 to 0.125 µg/mL (≈ 0.00748 to 0.117 µM), an MIC [5] of 0.008 to 0.063 µg/mL (≈ 0.00748 to 0.0589 µM) and an MIC [6] of 0.004 to 0.5 µg/mL (≈ 0.00374 to 0.468 µM). The MIC [7] was 0.125 to 2 µg/mL (≈ 0.117 to 1.87 µM), the MIC [8] was 2 to 32 µg/mL (≈ 1.87 to 29.9 µM) and the MIC [9] was 0.06 to 32 µg/mL (≈ 0.0561 to 29.9 µM). The MIC [10] was 0.06 to 16 µg/mL (≈ 0.0561 to 15 µM) and the MIC [11] was 0.004 to 0.5 µg/mL (≈ 0.00374 to 0.468 µM).

`CO[C@H]1/C=C/O[C@@]2(C)Oc3c(C)c(O)c4c(O)c(c(CN5CCN(c6cc7c(cc6F)c(=O)c(C(=O)O)cn7C6CC6)CC5)c(O)c4c3C2=O)NC(=O)/C(C)=C\C=C\[C@H](C)[C@H](O)[C@@H](C)[C@@H](O)[C@@H](C)[C@H](OC(C)=O)[C@@H]1C` [Example 12, 3-[4-[3-Carboxy-1-cyclopropyl-6-fluoro-4-oxo-(1,4-dihydroquinolin-7-yl)]-piperazin-1-ylmethyl]rifamycin SV] gave an MIC [1] of 0.5 to 64 µg/mL, an MIC [2] of 0.008 to 0.063 µg/mL (≈ 0.00768 to 0.0605 µM) and an MIC [3] of 0.125 to 8 µg/mL (≈ 0.12 to 7.68 µM). For the same molecule, the MIC [4] was 0.008 to 0.125 µg/mL (≈ 0.00768 to 0.12 µM), the MIC [5] was 0.008 to 0.063 µg/mL (≈ 0.00768 to 0.0605 µM) and the MIC [6] was 0.004 to 0.5 µg/mL (≈ 0.00384 to 0.48 µM). For the same molecule, the MIC [7] was 0.125 to 2 µg/mL (≈ 0.12 to 1.92 µM), the MIC [8] was 2 to 32 µg/mL (≈ 1.92 to 30.7 µM) and the MIC [9] was 0.06 to 32 µg/mL (≈ 0.0576 to 30.7 µM). For the same molecule, the MIC [10] was 0.06 to 16 µg/mL (≈ 0.0576 to 15.4 µM) and the MIC [11] was 0.004 to 0.5 µg/mL (≈ 0.00384 to 0.48 µM).

Molecule `CO[C@H]1/C=C/O[C@@]2(C)Oc3c(C)c(O)c4c(O)c(c(CN5CCN(c6nc7c(cc6F)c(=O)c(C(=O)O)cn7-c6ccc(F)cc6F)CC5)c(O)c4c3C2=O)NC(=O)/C(C)=C\C=C\[C@H](C)[C@H](O)[C@@H](C)[C@@H](O)[C@@H](C)[C@H](OC(C)=O)[C@@H]1C` [Example 14, 3-[4-[3-carboxy-1-(2,4-Difluoro-phenyl)-6-fluoro-4-oxo-1,4-dihydro-[1,8]naphthyridin-7-yl]piperazin-1-ylmethyl]rifamycin SV] has an MIC [1] of 0.5 to 64 µg/mL, an MIC [2] of 0.008 to 0.063 µg/mL (≈ 0.00718 to 0.0565 µM) and an MIC [3] of 0.125 to 8 µg/mL (≈ 0.112 to 7.18 µM). It also gave an MIC [4] of 0.008 to 0.125 µg/mL (≈ 0.00718 to 0.112 µM), an MIC [5] of 0.008 to 0.063 µg/mL (≈ 0.00718 to 0.0565 µM) and an MIC [6] of 0.004 to 0.5 µg/mL (≈ 0.00359 to 0.449 µM). The MIC [7] was 0.125 to 2 µg/mL (≈ 0.112 to 1.8 µM), the MIC [8] was 2 to 32 µg/mL (≈ 1.8 to 28.7 µM) and the MIC [9] was 0.06 to 32 µg/mL (≈ 0.0539 to 28.7 µM). The MIC [10] was 0.06 to 16 µg/mL (≈ 0.0539 to 14.4 µM) and the MIC [11] was 0.004 to 0.5 µg/mL (≈ 0.00359 to 0.449 µM).

`CO[C@H]1/C=C/O[C@@]2(C)Oc3c(C)c(O)c4c(O)c(c(CN[C@@H]5CCN(c6cc7c(cc6F)c(=O)c(C(=O)O)cn7C6CC6)C5)c(O)c4c3C2=O)NC(=O)/C(C)=C\C=C\[C@H](C)[C@H](O)[C@@H](C)[C@@H](O)[C@@H](C)[C@H](OC(C)=O)[C@@H]1C` [Example 15, (R)-3-[1-(3-carboxy-1-cyclopropyl-6-fluoro-4-oxo-1,4-dihydroquinolin-7-yl)-pyrrolidinyl-3-aminomethyl]rifamycin SV] showed an MIC [1] of 0.5 to 64 µg/mL, an MIC [2] of 0.008 to 0.063 µg/mL (≈ 0.00768 to 0.0605 µM) and an MIC [3] of 0.125 to 8 µg/mL (≈ 0.12 to 7.68 µM). The MIC [4] was 0.008 to 0.125 µg/mL (≈ 0.00768 to 0.12 µM), the MIC [5] was 0.008 to 0.063 µg/mL (≈ 0.00768 to 0.0605 µM) and the MIC [6] was 0.004 to 0.5 µg/mL (≈ 0.00384 to 0.48 µM). For the same molecule, the MIC [7] was 0.125 to 2 µg/mL (≈ 0.12 to 1.92 µM), the MIC [8] was 2 to 32 µg/mL (≈ 1.92 to 30.7 µM) and the MIC [9] was 0.06 to 32 µg/mL (≈ 0.0576 to 30.7 µM). For the same molecule, the MIC [10] was 0.06 to 16 µg/mL (≈ 0.0576 to 15.4 µM) and the MIC [11] was 0.004 to 0.5 µg/mL (≈ 0.00384 to 0.48 µM).

In the case of `CO[C@H]1/C=C/O[C@@]2(C)Oc3c(C)c(O)c4c(O)c(c(CN[C@H]5CCN(c6cc7c(cc6F)c(=O)c(C(=O)O)cn7C6CC6)C5)c(O)c4c3C2=O)NC(=O)/C(C)=C\C=C\[C@H](C)[C@H](O)[C@@H](C)[C@@H](O)[C@@H](C)[C@H](OC(C)=O)[C@@H]1C` [Example 16, (S)-3-[1-(3-carboxy-1-cyclopropyl-6-fluoro-4-oxo-1,4-dihydroquinolin-7-yl)-pyrrolidinyl-3-aminomethyl]rifamycin SV], the MIC [1] is reported as 0.5 to 64 µg/mL, the MIC [2] is reported as 0.008 to 0.063 µg/mL (≈ 0.00768 to 0.0605 µM) and the MIC [3] is reported as 0.125 to 8 µg/mL (≈ 0.12 to 7.68 µM). The MIC [4] was 0.008 to 0.125 µg/mL (≈ 0.00768 to 0.12 µM), the MIC [5] was 0.008 to 0.063 µg/mL (≈ 0.00768 to 0.0605 µM) and the MIC [6] was 0.004 to 0.5 µg/mL (≈ 0.00384 to 0.48 µM). It also gave an MIC [7] of 0.125 to 2 µg/mL (≈ 0.12 to 1.92 µM), an MIC [8] of 2 to 32 µg/mL (≈ 1.92 to 30.7 µM) and an MIC [9] of 0.06 to 32 µg/mL (≈ 0.0576 to 30.7 µM). For the same molecule, the MIC [10] was 0.06 to 16 µg/mL (≈ 0.0576 to 15.4 µM) and the MIC [11] was 0.004 to 0.5 µg/mL (≈ 0.00384 to 0.48 µM).

— US7247634B2, “Rifamycin derivatives effective against drug-resistant microbes” (Cumbre Pharmaceuticals Inc., priority 2004, dated 2007)
